# Laboratory results published in patent US5340727A, “GPIbα fragments and recombinant DNA expression vectors” (The Scripps Research Institute, priority 1990, dated 1994).
# Where no end group is shown, it is not given here.
# Tests used:
# vWF-GPIb interaction [1] = molecular target: T1, vWF-GPIb interaction (Homo sapiens, UniProt P04275+P07359); assay: Ristocetin-induced binding of 125I-labeled vWF to fresh or formalin-fixed platelets; settings: peptides tested individually; read-out: IC50, inhibition of binding of vWF to the GPIb of platelets by synthetic peptides
# T1 construct: endogenous in cells; host or cells: fresh or formalin-fixed platelets
# Protocol: The assay system is based on the use of ^125 I-labeled vWF and fresh or formalin-fixed platelets; ristocetin was used to induce the binding of vWF to GPIb. After incubation for 30 minutes at 37° C., without stirring, separation of bound platelet from free vWF ligand was achieved by centrifugation through 20% sucrose in Tyrode buffer, followed by measurement of the bound radioactivity as described in Ruggeri et al., J. Clin. Invest., 72, 1-12 (1983). Nonspecific binding was evaluated for selected points by measuring the binding in the presence of a 40-fold excess of unlabeled vWF. Binding isotherms were evaluated by Scatchard-type analysis to determine binding parameters (including the estimate of nonspecific binding) using the computer-assisted program "Ligand" as described in Munson, Methods Enzymol., 92, 542-576 (1983).
# vWF-GPIb interaction [2] = molecular target: T1, vWF-GPIb interaction; assay: Inhibition of ristocetin-induced binding of vWF to formalin-fixed platelets (Example 1); settings: 125I-vWF 5 μg/ml, ristocetin 1.0 mg/ml
# Protocol: To test the inhibitory activity of the peptides of the present invention, formalin-fixed platelets were used at a final concentration of 1×10^11 /l. Assayed peptides were then added at various concentrations. One third final volume of vWF-deficient plasma was then added followed by ^125 I-vWF at a final concentration of 5 μg/ml. Ristocetin was then added at a concentration of 1.0 mg/ml. After incubation for o30 minutes at room temperature, bound and free vWF ligand were separated by centrifuging 50 μl of the mixture through 300 μl of 20% sucrose at 12,000 g for 4 minutes. The platelet pellet was then separated from the rest of the mixture to determine platelet-bound radioactivity. Nonspecific binding was defined as the residual binding of ^125 I-vWF in the presence of a 50-fold excess of unlabeled vWF but in the absence of any peptides.
# Percent inhibition with a given peptide was calculated by dividing the specific cpm […].
# vWF-GPIb interaction [3] = molecular target: T1, vWF-GPIb interaction; assay: Inhibition of asialo-vWF binding to fresh platelets (Example 2); settings: 125I-asialo-vWF 5 μg/ml
# Protocol: Fresh platelets were prepared by drawing blood into a solution of 11 mM trisodium citrate and 2 mM EDTA. Platelet-rich plasma was then prepared by differential centrifugation. The platelet count was then adjusted to 1×10^11 /l. Peptides were then added to various concentrations and ^125 I-asialo-vWF was then added at a final concentration of 5 μg/ml. After incubation for 30 minutes at room temperature, bound and free vWF ligand were separated by centrifuging 50 μl of the mixture through 300 μl of 20% sucrose at 12,000 g for 4 minutes. The platelet pellet was then separated from the rest of the mixture to determine platelet-bound radioactivity. Non-specific binding was defined as the residual binding of ^125 I- asialo-vWF in the presence of a 50-fold excess of unlabeled vWF but in the absence of any peptides.
# Percent inhibition with a given peptide was calculated by dividing the specific cpm obtained when various concentrations of peptide were added by the specific cpm in the absence of peptide.
# GPIb-IX = GPIb-IX (Homo sapiens, UniProt P04275); assay: biochemical
# Protocol: (§1) Percent inhibition of binding of vWF to platelets was measured using I^125 labelled vWF prepared according to the methods of Ruggeri et al. See also DeMarco et al., J. Clin. Invest., 68, 321-328 (1981). Binding of vWF to platelets induced by ristocetin and/or botrocetin (and inhibition thereof) was measured according to the method of MacFarlane et al., Thromb. Diath. Haemorrh., 34, 306-308 (1975) which utilizes washed platelets fixed with formaldehyde. […] Each peptide, used at a final concentration of 500 μmol/l with a ^125 I-vWF concentration of 2 μg/ml, is identified by the same numeral used in the top part of the figure.
# (§2) Further experiments were performed with a constant ^125 I-vWF concentration of 2 μg/ml and varying peptide concentration, as indicated on the FIG. 2 abscissa. […] One hundred percent binding was that measured in the presence of Hepes buffer instead of peptide.
# (§3) Binding inhibition experiments were conducted analogous to those in Example 6 using an I^125 -vWF concentration of 2 μg/ml.
# GPIb-IX (Homo sapiens) = molecular target: T2, GPIb-IX (Homo sapiens); assay: Ristocetin-dependent 125I-vWF binding to formaldehyde-fixed washed platelets (Examples 5-7); settings: 125I-vWF 2 μg/ml; read-out: concentration that inhibits 50% of ristocetin-induced binding of vWF
# T2 construct: which utilizes washed platelets fixed with formaldehyde; endogenous in cells; host or cells: washed platelets fixed with formaldehyde
# T2 sequence (P04275 764-2813 limits assumed): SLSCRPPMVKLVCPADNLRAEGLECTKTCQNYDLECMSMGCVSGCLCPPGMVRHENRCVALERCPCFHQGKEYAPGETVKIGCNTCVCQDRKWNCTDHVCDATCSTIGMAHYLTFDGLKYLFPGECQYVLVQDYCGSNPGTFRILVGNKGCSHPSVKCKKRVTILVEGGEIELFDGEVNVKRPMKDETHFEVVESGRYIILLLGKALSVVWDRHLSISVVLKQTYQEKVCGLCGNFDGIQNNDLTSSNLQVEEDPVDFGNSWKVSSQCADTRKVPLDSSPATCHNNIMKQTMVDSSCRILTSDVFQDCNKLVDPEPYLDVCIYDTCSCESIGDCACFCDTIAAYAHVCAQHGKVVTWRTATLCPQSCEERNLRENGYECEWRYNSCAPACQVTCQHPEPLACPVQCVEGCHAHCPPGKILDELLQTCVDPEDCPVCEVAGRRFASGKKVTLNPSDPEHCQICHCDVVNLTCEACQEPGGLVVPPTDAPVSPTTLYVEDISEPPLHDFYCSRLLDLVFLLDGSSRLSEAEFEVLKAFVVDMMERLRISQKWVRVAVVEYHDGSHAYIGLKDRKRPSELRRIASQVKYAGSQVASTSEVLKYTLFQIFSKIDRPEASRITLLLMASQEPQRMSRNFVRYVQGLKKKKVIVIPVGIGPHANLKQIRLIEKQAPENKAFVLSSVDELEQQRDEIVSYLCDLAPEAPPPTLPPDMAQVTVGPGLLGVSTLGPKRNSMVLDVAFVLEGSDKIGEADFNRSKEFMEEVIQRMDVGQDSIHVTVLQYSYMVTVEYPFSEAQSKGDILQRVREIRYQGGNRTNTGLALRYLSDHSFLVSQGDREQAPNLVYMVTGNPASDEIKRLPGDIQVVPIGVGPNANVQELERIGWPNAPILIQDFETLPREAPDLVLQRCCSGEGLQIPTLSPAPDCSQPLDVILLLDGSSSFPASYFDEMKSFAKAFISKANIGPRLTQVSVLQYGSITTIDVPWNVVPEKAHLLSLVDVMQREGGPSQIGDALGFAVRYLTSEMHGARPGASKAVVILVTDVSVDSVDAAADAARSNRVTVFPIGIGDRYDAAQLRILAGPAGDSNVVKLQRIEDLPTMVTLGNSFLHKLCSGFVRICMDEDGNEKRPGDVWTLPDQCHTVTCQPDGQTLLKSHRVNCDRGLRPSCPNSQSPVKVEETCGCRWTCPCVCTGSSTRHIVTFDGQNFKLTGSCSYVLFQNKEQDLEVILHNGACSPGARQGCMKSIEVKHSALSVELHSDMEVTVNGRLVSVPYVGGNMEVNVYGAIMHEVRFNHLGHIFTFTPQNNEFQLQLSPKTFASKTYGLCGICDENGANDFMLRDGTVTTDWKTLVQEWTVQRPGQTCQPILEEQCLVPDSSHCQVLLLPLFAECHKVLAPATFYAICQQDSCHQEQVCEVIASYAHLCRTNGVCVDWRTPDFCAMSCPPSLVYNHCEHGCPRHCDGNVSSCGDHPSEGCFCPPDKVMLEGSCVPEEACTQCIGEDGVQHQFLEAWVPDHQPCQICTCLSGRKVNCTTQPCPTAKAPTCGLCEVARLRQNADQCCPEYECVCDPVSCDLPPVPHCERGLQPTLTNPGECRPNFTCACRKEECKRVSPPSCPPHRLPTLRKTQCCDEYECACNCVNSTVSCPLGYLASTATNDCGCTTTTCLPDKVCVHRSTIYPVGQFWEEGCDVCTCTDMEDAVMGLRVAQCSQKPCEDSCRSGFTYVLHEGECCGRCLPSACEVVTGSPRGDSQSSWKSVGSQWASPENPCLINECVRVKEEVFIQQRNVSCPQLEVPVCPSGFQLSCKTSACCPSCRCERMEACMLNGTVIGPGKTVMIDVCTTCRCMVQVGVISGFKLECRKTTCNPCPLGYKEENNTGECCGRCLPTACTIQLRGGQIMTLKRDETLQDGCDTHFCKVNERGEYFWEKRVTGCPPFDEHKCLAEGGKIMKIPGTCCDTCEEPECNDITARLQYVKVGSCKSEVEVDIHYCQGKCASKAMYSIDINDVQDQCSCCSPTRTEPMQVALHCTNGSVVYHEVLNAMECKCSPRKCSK
# Protocol: as §1, §2, §3
# T1 sequence (P07359 17-652): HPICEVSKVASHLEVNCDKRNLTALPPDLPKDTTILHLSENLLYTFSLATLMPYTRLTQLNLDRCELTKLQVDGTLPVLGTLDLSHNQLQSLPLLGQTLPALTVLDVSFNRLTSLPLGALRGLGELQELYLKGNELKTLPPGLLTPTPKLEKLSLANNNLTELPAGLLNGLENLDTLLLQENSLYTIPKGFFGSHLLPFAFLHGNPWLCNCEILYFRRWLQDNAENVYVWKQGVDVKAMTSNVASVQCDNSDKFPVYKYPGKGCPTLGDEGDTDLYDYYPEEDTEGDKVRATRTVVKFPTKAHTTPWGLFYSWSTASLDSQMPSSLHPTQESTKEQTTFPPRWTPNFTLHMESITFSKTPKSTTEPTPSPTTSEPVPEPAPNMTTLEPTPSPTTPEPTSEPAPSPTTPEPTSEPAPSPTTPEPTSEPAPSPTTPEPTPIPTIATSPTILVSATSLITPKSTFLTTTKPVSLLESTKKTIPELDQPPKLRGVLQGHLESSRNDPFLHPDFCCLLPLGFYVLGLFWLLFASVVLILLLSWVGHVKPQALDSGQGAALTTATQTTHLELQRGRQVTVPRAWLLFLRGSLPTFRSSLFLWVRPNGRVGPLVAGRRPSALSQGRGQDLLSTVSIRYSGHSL
# T1 sequence (P04275 764-2813 limits assumed): as the sequence (P04275 764-2813 limits assumed) above
# GPIb-IX, sequence (P04275 764-2813 limits assumed): as above
Substance,IC50 (vWF-GPIb interaction [1]),also measured
PGLLTPTPKLEKLSL,≤ 500 µM,–
KRKRKRKRKRKRKR [(KR)7],–,IC50 (vWF-GPIb interaction [2]): 9 µM
EEDTEGDKVRATRTV,≤ 500 µM,–
KQGVDVKAMTSNVAS,≤ 500 µM,–
NLTALPPDLPKDTTI,≤ 500 µM,–
DKRNLTALPPDLPKDTT,≤ 500 µM,–
PPDLPKDTTILHLSE,≤ 500 µM,–
PPDLPKDTT,> 500 µM,–
KRKRKRKRKR [(KR)5],–,IC50 (vWF-GPIb interaction [3]): 1.7 µM; IC50 (vWF-GPIb interaction [2]): 13 µM
EEDTE [EEDTE],> 500 µM,–
GDTDLYDYYPEEDTE [peptide 25],≤ 500 µM,IC50 (GPIb-IX): 530 µM; IC50 (GPIb-IX (Homo sapiens)): 420 µM
